Measurements from patent US20200376146A1, “NANOBIOLOGIC COMPOSITIONS FOR INHIBITING TRAINED IMMUNITY” (ICAHN SCHOOL OF MEDICINE, priority 2017, published 2020).

How the values were obtained:
[1] = Hydrolysis of (pro-)drugs in nanobiologics; format: physicochemical; details: 4° C. in PBS
Procedure: (Pro-)drug recovery and hydrolysis were determined using the following procedure: an aliquot (200 μL) of the particle solution was dried under vacuum, acetonitrile (600 μL) was added and the suspension was sonicated for 20 minutes. The suspension was centrifuged to precipitate any solids and the remaining solution was analyzed using HPLC; except for the malonate derivatives which were analyzed using SFC-MS, and Dimethylmalonate which was analyzed by GC-MS.

[2] = system: heart allograft; assay: Cardiac allograft survival (BALB/c hearts into C57BL/6 recipients); format: in vivo, mice; details: oral, 5 mg/kg every day for 15 days
[3] = Toxicity in transplant recipients (BUN, serum creatinine, histopathology); format: in vivo, mice; details: regimens giving 100% allograft survival for 30 days

With CCCCCCCCCCCCCCCCCC(=O)O[C@@H]1CC[C@@H](C[C@@H](C)[C@@H]2CC(=O)[C@H](C)/C=C(\C)[C@@H](O)[C@@H](OC)C(=O)[C@H](C)C[C@H](C)/C=C/C=C/C=C(\C)[C@@H](OC)C[C@@H]3CC[C@@H](C)[C@@](O)(O3)C(=O)C(=O)N3CCCC[C@H]3C(=O)O2)C[C@H]1OC [Cis-Rapamycin, Rapamycin-C18] as the molecule, how does the “hydrolysis of the (pro-)drug in the nanobiologic over time” value [1] read?
The value was “hydrolysis was observed”.

What does the source list for CO[C@H]1C[C@@H]2CC[C@@H](C)[C@@](O)(O2)C(=O)C(=O)N2CCCC[C@H]2C(=O)O[C@H]([C@H](C)C[C@@H]2CC[C@@H](O)[C@H](OC)C2)CC(=O)[C@H](C)/C=C(\C)[C@@H](O)[C@@H](OC)C(=O)[C@H](C)C[C@H](C)/C=C/C=C/C=C/1C [Rapamycin, rapamycin]?
allograft survival for 30 days [2]: 100%; blood urea nitrogen (BUN) and serum creatinine [3]: kidney toxicity parameters show statistical differences between oral rapamycin and mTORi-HDL
